Reference: PubChem BioAssay AID1963848 (Molecular Pharmacology Branch, DTP, NCI, 2024)
pIC50: −log10 of the molar value.

System: 379773-124-R-J2-PDC spheroid viability
Assay: Anticancer human tumor 379773-124-R-J2-PDC patient-derived endometrial carcinoma cell line growth inhibition [POLQ]
Details: spheroids with HUVEC and MSC; for pIC50: curve of first compound; for viability, T/C: stronger effect = lower value; active = viability on the fitted dose curve at most 10% of control; inactive = the rest
Summary of the method: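 Patient-derived tumour cells were co-cultured with HUVEC and mesenchymal stem cells as multicellular spheroids at 37 °C. They were treated with POLQ inhibitors (novobiocin, ART-558, RP6685) alone or combined with other agents. Top concentrations were at or near clinical Cmax (otherwise 10 microM; SN-38 at 1 microM), decreasing in half-log steps.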

[1] = second compound 0.0316 µM, first compound 0.0316 µM
[2] = second compound 0.0316 µM, first compound 0.1 µM
[3] = second compound 0.0316 µM, first compound 0.316 µM
[4] = second compound 0.0316 µM, first compound 1 µM
[5] = second compound 0.0316 µM, first compound 3.16 µM
[6] = second compound 0.0316 µM, first compound 10 µM
[7] = second compound 0.1 µM, first compound 0.0316 µM
[8] = second compound 0.1 µM, first compound 0.1 µM
[9] = second compound 0.1 µM, first compound 0.316 µM
[10] = second compound 0.1 µM, first compound 1 µM
[11] = second compound 0.1 µM, first compound 3.16 µM
[12] = second compound 0.1 µM, first compound 10 µM
[13] = second compound 0.316 µM, first compound 0.0316 µM
[14] = second compound 0.316 µM, first compound 0.1 µM
[15] = second compound 0.316 µM, first compound 0.316 µM
[16] = second compound 0.316 µM, first compound 1 µM
[17] = second compound 0.316 µM, first compound 3.16 µM
[18] = second compound 0.316 µM, first compound 10 µM
[19] = second compound 1 µM, first compound 0.0316 µM
[20] = second compound 1 µM, first compound 0.1 µM
[21] = second compound 1 µM, first compound 0.316 µM
[22] = second compound 1 µM, first compound 1 µM
[23] = second compound 1 µM, first compound 3.16 µM
[24] = second compound 1 µM, first compound 10 µM
[25] = second compound 3.16 µM, first compound 0.0316 µM
[26] = second compound 3.16 µM, first compound 0.1 µM
[27] = second compound 3.16 µM, first compound 0.316 µM
[28] = second compound 3.16 µM, first compound 1 µM
[29] = second compound 3.16 µM, first compound 3.16 µM
[30] = second compound 3.16 µM, first compound 10 µM
[31] = second compound 10 µM, first compound 0.0316 µM
[32] = second compound 10 µM, first compound 0.1 µM
[33] = second compound 10 µM, first compound 0.316 µM
[34] = second compound 10 µM, first compound 1 µM
[35] = second compound 10 µM, first compound 3.16 µM
[36] = second compound 10 µM, first compound 10 µM
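Note: spheroids exposed to drugs for seven days before readout.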
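Throughout, for viability, T/C: percent viability relative to DMSO vehicle control taken as 100%.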

C#Cc1c(F)ccc2cc(O)cc(-c3ncc4c(N5CC6CCC(C5)N6)nc(OCC56CCCN5CC(F)C6)nc4c3F)c12 (stereo unspecified) + Nc1ccc(C#CCN(C(=O)Cc2ncc(C(F)(F)F)cc2C(F)(F)F)c2ccc(F)cc2)nn1
< 5.00: pIC50 (second compound 0.0316 µM) | pIC50 (second compound 0.1 µM) | pIC50 (second compound 0.316 µM) | pIC50 (second compound 1 µM) | pIC50 (second compound 3.16 µM) | pIC50 (second compound 10 µM)
inactive: viability, T/C [1] 92.3% | viability, T/C [2] 91.9% | viability, T/C [3] 95.5% | viability, T/C [4] 89.1% | viability, T/C [5] 95.8% | viability, T/C [6] 101% | viability, T/C [7] 92.7% | viability, T/C [8] 110% | viability, T/C [9] 88.6% | viability, T/C [10] 98% | viability, T/C [11] 103% | viability, T/C [12] 107% | viability, T/C [13] 91.3% | viability, T/C [14] 89.3% | viability, T/C [15] 92.1% | viability, T/C [16] 94.3% | viability, T/C [17] 104% | viability, T/C [18] 111% | viability, T/C [19] 84.5% | viability, T/C [20] 97.6% | viability, T/C [21] 99.9% | viability, T/C [22] 86.1% | viability, T/C [23] 106% | viability, T/C [24] 103% | viability, T/C [25] 99.3% | viability, T/C [26] 88.7% | viability, T/C [27] 105% | viability, T/C [28] 103% | viability, T/C [29] 103% | viability, T/C [30] 104% | viability, T/C [31] 88.9% | viability, T/C [32] 88.6% | viability, T/C [33] 98.5% | viability, T/C [34] 85.6% | viability, T/C [35] 91.3% | viability, T/C [36] 102%

CC(C)n1c(=O)n(C)c2cnc3cc(F)c(-c4ccc(OCCCN5CCCCC5)nc4)cc3c21 + Nc1ccc(C#CCN(C(=O)Cc2ncc(C(F)(F)F)cc2C(F)(F)F)c2ccc(F)cc2)nn1
< 5.00: pIC50 (second compound 0.0316 µM) | pIC50 (second compound 0.1 µM) | pIC50 (second compound 0.316 µM) | pIC50 (second compound 1 µM) | pIC50 (second compound 3.16 µM) | pIC50 (second compound 10 µM)
inactive: viability, T/C [1] 95.4% | viability, T/C [2] 96.4% | viability, T/C [3] 83.3% | viability, T/C [4] 94.3% | viability, T/C [5] 81.7% | viability, T/C [6] 72.6% | viability, T/C [7] 97.9% | viability, T/C [8] 92.6% | viability, T/C [9] 85.3% | viability, T/C [10] 87.6% | viability, T/C [11] 78.9% | viability, T/C [12] 73.6% | viability, T/C [13] 90.4% | viability, T/C [14] 96.7% | viability, T/C [15] 84.7% | viability, T/C [16] 88.8% | viability, T/C [17] 81.4% | viability, T/C [18] 74.9% | viability, T/C [19] 98.5% | viability, T/C [20] 98.2% | viability, T/C [21] 87% | viability, T/C [22] 94.5% | viability, T/C [23] 84.7% | viability, T/C [24] 77.8% | viability, T/C [25] 92.6% | viability, T/C [26] 87.5% | viability, T/C [27] 82.1% | viability, T/C [28] 80.7% | viability, T/C [29] 85.9% | viability, T/C [30] 85.3% | viability, T/C [31] 85.5% | viability, T/C [32] 89.7% | viability, T/C [33] 77% | viability, T/C [34] 77.8% | viability, T/C [35] 75.2% | viability, T/C [36] 73.8%

CC1COCCN1c1cc(C2(O)CC3CCC(C2)O3)c2cnn(-c3ccn[nH]3)c2n1 (stereo unspecified) + Nc1ccc(C#CCN(C(=O)Cc2ncc(C(F)(F)F)cc2C(F)(F)F)c2ccc(F)cc2)nn1
6.92: pIC50 (second compound 0.316 µM)
active: viability, T/C [4] 12.8% | viability, T/C [5] 11.2% | viability, T/C [6] 4.19% | viability, T/C [10] 14% | viability, T/C [11] 10.2% | viability, T/C [12] 3.29% | viability, T/C [16] 11.8% | viability, T/C [17] 10.4% | viability, T/C [18] 4.27% | viability, T/C [22] 13.6% | viability, T/C [23] 8.92% | viability, T/C [24] 3.67% | viability, T/C [28] 11.8% | viability, T/C [29] 9.65% | viability, T/C [30] 3.56% | viability, T/C [34] 14.6% | viability, T/C [35] 9.99% | viability, T/C [36] 3.04%
6.90: pIC50 (second compound 3.16 µM)
6.97: pIC50 (second compound 1 µM)
6.89: pIC50 (second compound 0.0316 µM)
inactive: viability, T/C [1] 110% | viability, T/C [2] 59.9% | viability, T/C [3] 13.5% | viability, T/C [7] 92% | viability, T/C [8] 51.4% | viability, T/C [9] 16% | viability, T/C [13] 83.2% | viability, T/C [14] 56.6% | viability, T/C [15] 16.1% | viability, T/C [19] 86.9% | viability, T/C [20] 52.5% | viability, T/C [21] 16.4% | viability, T/C [25] 83% | viability, T/C [26] 59.3% | viability, T/C [27] 12.5% | viability, T/C [31] 82.8% | viability, T/C [32] 54.5% | viability, T/C [33] 18.5%
6.98: pIC50 (second compound 0.1 µM)
6.94: pIC50 (second compound 10 µM)
